{"source": "patent US7071206B2", "about": "“Agents for treating neurodegenerative disorders” (Medivation, Inc., priority 1995, dated 2006)", "key": {"NMDA receptor": {"test_system": "NMDA receptor", "assay": "Anti-NMDA activity: prevention of convulsions and death caused by NMDA injected into the lateral ventricle of the brain", "type": "in vivo", "settings": "mice; i.p. 40 minutes before NMDA 0.1 μg into the lateral ventricle; probit analysis", "experimental": "The experiment was conducted in white non-inbred male mice of 20–24 g of weight. A solution of the test agent in 0.2 ml of 5% aqueous dimethylsulfoxide was injected intraperitoneally 40 minutes before the injection of NMDA into the lateral vehicle of the brain. For the mice that had been prepared beforehand for the experiment a skin flap on the head of each mouse was removed under ether anestesia and a hole was bored in the skull by a fine drill. NMDA (0.1 μg) in a volume of 1.4 μl was injected with a microsyringe. The microsyringe needle was immersed to a depth of 2.5 mm. After the operation, the wound was treated with a 2% novocaine solution. […] The accuracy of NMDA injection was monitored by injection of methylene blue. Two to 4 hours after the operation, the mice were used for a pharmacological experiment.\nThe animals inoculated with a saline solution were used as control.\nEach dose of the agent was tested in a croup of 6–8 animals. The ED50 value (the dose of the agent preventing the development of convulsions and the death of 50% of the animals) was determined by a probit-analysis method (Litchfild J. T., Wicoxon F. J.—Pharmacol. Exp. Therap., 1949, v. 96, p. 99–114)."}, "[1]": {"test_system": "patients suffering from Alzheimer's disease", "assay": "Clinical trial of dimebon: EEG investigations", "type": "in vivo, human", "settings": "any patients except one (observation 12: increase of focal Δ-waves, retardation of the rhythm)", "description": "In observations 2, 11 and 14 the weakly positive dynamics of the EEG was manifested in weaker outbursts during hyperventilation and normalization of the zonal differences."}, "[2]": {"test_system": "patients suffering from Alzheimer's disease", "settings": "general statement on the agent used in medicine as antiallergic; cited from earlier work"}, "[3]": {"test_system": "patients suffering from Alzheimer's disease", "assay": "Clinical trial of dimebon: clinical observations of the mental state", "type": "in vivo, human", "experimental": "(§1) The test was carried out under the direct supervision by two of the inventors, namely E. E. Bukatina and V. Grigorieva, in 14 patients who agreed to take part in the tests, 13 of whom lived in a boarding house for senile persons and one patient lived with their family.\n(§2) Dimebon in the form of tablets (comprising 10 mg of dimebon, 30 mg of lactose, 5 mg of magnesium stearate was prescribed for oral administration in a dose of 0.02 g three to times a day. The patients living in the boarding house received dimebon for 58 days. A patient (observation 14) who was under outpatient observation continued taking the agent for a month after the completion of the tests.\nThe test results reflected the condition of the patients at the time of the examination. Any changes in the metal state observed in the interval between the tests and disappearing by the moment of examination according to the scale were described in the section “Clinical Observations”.\nThe pattern of the dynamics of the mental states of the patients during the treatment with dimebon registered in clinical observations is presented in Table 17."}, "[4]": {"test_system": "patients suffering from Alzheimer's disease", "assay": "Clinical trial of dimebon: blood and urea analysis", "type": "in vivo, human", "description": "By the 8th week of the treatment the amount of leukocytes was normal again."}, "[5]": {"test_system": "patients suffering from Alzheimer's disease", "assay": "Clinical trial of dimebon tablets, Hazegawa's scale (0 score = poorest result)", "type": "in vivo, human", "experimental": "as §1\nAlzheimer's disease was diagnosed on the basis of criteria ICD-10 NINCDS ADRDA.\nas §2\nBefore the treatment with dimebon, and at 4 and 8 weeks after treatment the patients were examined according to Hazegawa's scale and the inventors' scale (“Social and Clinical Psychiatry”, 1992, No.4, pp.29–37) which includes the following indexes: (1) orientation in locality, time, immediate surroundings and one's own personality; (2) orientation in space; (3) memory for the past; (4) memory for the present; (5) “life in the past”; (6) (a) articulation, (b) difficulty in finding words, and distortion of words; (c) naming of objects; (d) following instructions; (7) concentration (of attention); (8) an affective sphere; (a) high spirits, (b) low spirits; (9) delirium; (10) hearing hallucinations; (11) visual hallucinations; (12) senile or senile-like confusion (when motion anxiety is accompanied by the revival of the past experience); (13) irritability; (14) anxiety; (15) asthenia; (16) headaches; (17) dizziness; (18) tearfulness; (19) spontaneous activity; (20) elementary self-service; and (21 control of sphincters.\nAccording to the Hazegawa's scale, the 0 score indicates the poorest result; on the contrary, according to the inventors' scale, the 0 score indicates the absence of a symptom 4 score indicates the greatest manifestation thereof. […] Before the therapy was started, the patients had been independently examined by two doctors who used the inventors' scale. The examination during the treatment was carried out by the doctors using both the scales. The evaluation according to all the inventors' scale points during all the tests and their variations during the treatment with dimebon are given in the Appendix.\nBoth absolute evaluations of the signs under investigation (the evaluation prior to treatment is a mean evaluation of the two examinations) and variations in them were analysed in the course of therapy. In doing so, only those changes that were beyond the range of evaluations obtained in two pre-treatment examinations were taken into consideration. […]"}}}
{"smiles": "Cc1ccc2c(c1)c1c(n2CCc2ccc(C)nc2)CCN(C)C1", "note": "[No. 10, 2,8-dimethyl-5-[2-(6-methyl-3-pyridyl)ethyl]-2,3,4,5-tetrahydro-1H-pyrido[4,3-b]indole]", "values": [{"measurement": "ED50 (dose preventing the development of convulsions and the death of 50% of the animals)", "setting": "NMDA receptor", "value": "42 ± 6", "unit": "mg/kg"}, {"measurement": "changes in the EEG during the course of treatment", "setting": "[1]", "value": "No changes in the EEG"}, {"measurement": "toxicity and negative side-effects", "setting": "[2]", "value": "non-toxic and does not show any negative side-effects"}, {"measurement": "number of patients who became more active (cheerfulness and freshness)", "setting": "[3]; 14 patients", "value": 4, "unit": "patients"}, {"measurement": "number of patients who complained of headaches much less frequently", "setting": "[3]; 14 patients", "value": 4, "unit": "patients"}, {"measurement": "number of patients who slept better", "setting": "[3]; 14 patients", "value": 2, "unit": "patients"}, {"measurement": "number of patients with a distinct antidepressive effect", "setting": "[3]; 14 patients", "value": 8, "unit": "patients"}, {"measurement": "number of patients with a greater interest in what was happening around", "setting": "[3]; 14 patients", "value": 8, "unit": "patients"}, {"measurement": "psychopatic-like and depressive manifestations, conclusion", "setting": "[3]; 14 patients", "value": "definite positive effect"}, {"measurement": "psychopathic-like symptoms (lack of restraint, touchiness, conflict making, evil-mindedness or aggressiveness)", "setting": "[3]; all 7 patients who suffered from them, during the first 2 weeks of therapy", "value": "decreased significantly"}, {"measurement": "amount of leukocytes", "setting": "[4]; after 4 weeks, within normal limits, p<0.05", "value": "significant reduction"}, {"measurement": "amount of leukocytes", "setting": "[4]; by the 8th week", "value": "normal again"}, {"measurement": "hematological and biochemical status", "setting": "[4]; during the course of the treatment", "value": "No pathologic changes"}, {"measurement": "Evaluation according to Hazegawa's scale, M +/− m", "setting": "[5]; mean of 7 patients with nonprofound dementia, after 4 weeks", "value": "20.79 +/− 1.85"}, {"measurement": "Evaluation according to Hazegawa's scale, M +/− m", "setting": "[5]; mean of 7 patients with nonprofound dementia, after 8 weeks", "value": "23 +/− 1.17"}, {"measurement": "Evaluation according to Hazegawa's scale, M +/− m", "setting": "[5]; mean of 14 patients, after 4 weeks", "value": "14.68 +/− 1.87"}, {"measurement": "Evaluation according to Hazegawa's scale, M +/− m", "setting": "[5]; mean of 14 patients, after 8 weeks", "value": "15.68 +/− 2.39"}]}
